“And” between values parts separate entries of the source, which are not always exact repeats. Equal values may be shown once. Read-outs that look alike come from different tables or passages of the source.
Experiments:
[1] = tested on: rats trained to discriminate MDMA (1.5 mg/kg) from saline; format: in vivo, rat; conditions: for Rate of responding at dose of maximum DAR / Maximum %DAR (drug-appropriate responding): MDMA-trained rats, 15 min pretreatment; for Maximum %DAR (drug-appropriate responding): i.p., at dose of maximum DAR
hNET [2] = target: T1, hNET (Homo sapiens, UniProt P23975); test: cell-based
T1 sequence (P23975 whole entry): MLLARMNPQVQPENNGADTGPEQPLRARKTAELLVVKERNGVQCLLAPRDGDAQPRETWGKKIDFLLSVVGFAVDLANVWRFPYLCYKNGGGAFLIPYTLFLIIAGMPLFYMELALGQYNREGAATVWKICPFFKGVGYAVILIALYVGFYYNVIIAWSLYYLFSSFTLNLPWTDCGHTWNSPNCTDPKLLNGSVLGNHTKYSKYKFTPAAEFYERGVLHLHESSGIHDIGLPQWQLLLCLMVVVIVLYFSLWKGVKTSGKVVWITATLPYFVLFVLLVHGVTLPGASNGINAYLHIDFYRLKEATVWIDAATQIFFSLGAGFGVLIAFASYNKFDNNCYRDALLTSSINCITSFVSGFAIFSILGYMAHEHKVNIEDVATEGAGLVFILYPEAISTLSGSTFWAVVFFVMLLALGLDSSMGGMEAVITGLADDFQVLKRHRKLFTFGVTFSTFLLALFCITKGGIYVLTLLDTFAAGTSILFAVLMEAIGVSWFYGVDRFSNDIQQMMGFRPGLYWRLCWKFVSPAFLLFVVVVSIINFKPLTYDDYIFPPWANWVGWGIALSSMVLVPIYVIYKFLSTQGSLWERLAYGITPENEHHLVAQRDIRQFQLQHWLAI

Male Sprague-Dawley rats = test: Adverse effects observed during drug discrimination test sessions; format: in vivo, rat
hNET [3] = target: T1, hNET; test: cell-based; remark: listed apart in the source
human 5-HT2A receptor [4] = target: T2, human 5-HT2A receptor (Homo sapiens, UniProt P28223); test: IP-1 formation, HEK-5-HT2A cells; format: cell-based; conditions: for Emax: read-out: 5-HT2A Function IP-1 formation % maximal effect
T2 sequence (P28223 whole entry): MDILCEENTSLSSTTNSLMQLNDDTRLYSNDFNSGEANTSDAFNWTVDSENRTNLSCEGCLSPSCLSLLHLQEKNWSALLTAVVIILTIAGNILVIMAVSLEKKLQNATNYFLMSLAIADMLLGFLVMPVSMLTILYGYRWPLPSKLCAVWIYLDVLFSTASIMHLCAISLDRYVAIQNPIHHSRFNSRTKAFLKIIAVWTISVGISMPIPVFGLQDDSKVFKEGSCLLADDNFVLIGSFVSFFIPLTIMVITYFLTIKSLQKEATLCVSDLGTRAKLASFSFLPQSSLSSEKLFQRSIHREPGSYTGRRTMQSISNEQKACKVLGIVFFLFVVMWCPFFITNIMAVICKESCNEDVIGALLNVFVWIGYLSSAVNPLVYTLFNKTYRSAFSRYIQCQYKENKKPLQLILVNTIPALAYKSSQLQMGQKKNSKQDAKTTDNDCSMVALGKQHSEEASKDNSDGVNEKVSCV

hNET [5] = target: T1, hNET; test: biochemical; format: binding
Male Swiss–Webster mice = test: Locomotor activity; format: in vivo, mouse; conditions: mice, i.p.
hDAT [6] = target: T3, hDAT (Homo sapiens, UniProt Q01959); test: [3H]Dopamine release, HEK-hDAT cells; format: cell-based; conditions: HEK-hDAT cells
T3 sequence (Q01959 whole entry): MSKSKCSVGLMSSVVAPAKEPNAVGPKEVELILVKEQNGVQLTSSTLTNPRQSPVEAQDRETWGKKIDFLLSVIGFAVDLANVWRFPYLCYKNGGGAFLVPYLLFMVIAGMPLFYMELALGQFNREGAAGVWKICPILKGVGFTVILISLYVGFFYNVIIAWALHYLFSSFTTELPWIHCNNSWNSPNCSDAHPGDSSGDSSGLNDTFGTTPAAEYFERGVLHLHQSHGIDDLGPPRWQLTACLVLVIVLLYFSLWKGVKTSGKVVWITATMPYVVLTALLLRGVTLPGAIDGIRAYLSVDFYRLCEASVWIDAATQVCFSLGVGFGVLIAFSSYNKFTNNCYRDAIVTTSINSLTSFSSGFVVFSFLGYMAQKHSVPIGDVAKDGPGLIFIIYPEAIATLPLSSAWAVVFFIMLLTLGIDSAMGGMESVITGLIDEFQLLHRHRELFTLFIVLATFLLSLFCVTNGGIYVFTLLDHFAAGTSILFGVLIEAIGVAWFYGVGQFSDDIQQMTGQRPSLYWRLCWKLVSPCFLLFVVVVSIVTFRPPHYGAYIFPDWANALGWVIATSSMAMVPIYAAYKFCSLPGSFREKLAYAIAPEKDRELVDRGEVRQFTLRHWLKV

hDAT [7] = target: T3, hDAT; test: [3H]Dopamine uptake, HEK-hDAT cells; format: cell-based
[8] = tested on: rats trained to discriminate LSD (0.1 mg/kg) from saline; format: in vivo, rat; conditions: LSD-trained rats, 15 min pretreatment; for Maximum %DAR (drug-appropriate responding): i.p., at dose of maximum DAR
hSERT [9] = target: T4, hSERT (Homo sapiens, UniProt P31645); test: [125I]RTI-55 binding, HEK-hSERT cells
T4 sequence (P31645 whole entry): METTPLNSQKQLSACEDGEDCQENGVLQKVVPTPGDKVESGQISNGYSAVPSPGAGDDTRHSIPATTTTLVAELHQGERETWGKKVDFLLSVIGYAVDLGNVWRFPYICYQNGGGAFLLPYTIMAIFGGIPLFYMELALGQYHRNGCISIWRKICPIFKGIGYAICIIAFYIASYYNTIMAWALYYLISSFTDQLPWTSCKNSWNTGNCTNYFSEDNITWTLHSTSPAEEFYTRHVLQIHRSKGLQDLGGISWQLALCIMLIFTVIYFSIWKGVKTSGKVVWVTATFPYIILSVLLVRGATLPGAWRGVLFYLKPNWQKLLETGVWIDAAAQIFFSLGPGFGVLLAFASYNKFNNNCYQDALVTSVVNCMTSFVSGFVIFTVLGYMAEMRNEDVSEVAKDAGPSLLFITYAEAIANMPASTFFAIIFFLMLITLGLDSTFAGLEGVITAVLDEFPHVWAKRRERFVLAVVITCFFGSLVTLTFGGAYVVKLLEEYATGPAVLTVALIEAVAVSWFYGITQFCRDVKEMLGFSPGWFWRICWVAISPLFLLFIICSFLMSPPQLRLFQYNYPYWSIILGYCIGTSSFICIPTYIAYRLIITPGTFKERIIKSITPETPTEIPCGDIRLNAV

hDAT [10] = target: T3, hDAT; test: [125I]RTI-55 binding, HEK-hDAT cells
human 5-HT2A receptor [11] = target: T2, human 5-HT2A receptor; test: [3H]AA release from HEK-5-HT2A cells; format: cell-based; conditions: for Emax: read-out: 5-HT2A Function [3H]AA release % maximal effect
[12] = tested on: rats trained to discriminate METH (1 mg/kg) from saline; format: in vivo, rat; conditions: METH-trained rats, 15 min pretreatment
[13] = tested on: rats trained to discriminate DMT (5 mg/kg) from saline; format: in vivo, rat; conditions: DMT-trained rats; 15 min pretreatment
hSERT [14] = target: T4, hSERT; test: [3H]Serotonin uptake, HEK-hSERT cells; format: cell-based
[15] = tested on: rats trained to discriminate DOM (0.5 mg/kg) from saline; format: in vivo, rat; conditions: 15 min pretreatment
hSERT [16] = target: T4, hSERT; test: [3H]Serotonin release, HEK-hSERT cells; format: cell-based
human 5-HT2A receptor [17] = target: T2, human 5-HT2A receptor; test: [125I]DOI binding, HEK-5-HT2A cells
human 5-HT1A receptor [18] = target: T5, human 5-HT1A receptor (Homo sapiens, UniProt P08908); test: [35S]GTPγS binding functional assay, HEK-5-HT1A; format: biochemical; conditions: for Emax: read-out: 5-HT1A Function [35S]GTPγS Binding % maximal effect
T5 sequence (P08908 1-422): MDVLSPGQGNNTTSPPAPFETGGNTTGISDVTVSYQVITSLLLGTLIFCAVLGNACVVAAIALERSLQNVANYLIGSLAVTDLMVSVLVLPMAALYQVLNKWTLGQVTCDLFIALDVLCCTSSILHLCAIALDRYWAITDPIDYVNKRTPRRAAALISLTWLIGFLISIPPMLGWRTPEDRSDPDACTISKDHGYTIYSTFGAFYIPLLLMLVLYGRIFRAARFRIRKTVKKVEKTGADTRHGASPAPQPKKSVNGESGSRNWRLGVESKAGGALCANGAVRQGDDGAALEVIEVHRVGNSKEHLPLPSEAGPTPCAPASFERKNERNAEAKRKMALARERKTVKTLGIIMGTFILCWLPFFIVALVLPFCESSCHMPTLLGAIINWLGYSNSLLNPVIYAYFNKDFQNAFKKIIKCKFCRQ

human 5-HT1A receptor [19] = target: T5, human 5-HT1A receptor; test: [3H]8-OH-DPAT binding, HEK-5-HT1A
human 5-HT2C receptor [20] = target: T6, human 5-HT2C receptor (Homo sapiens, UniProt P28335); test: cell-based; conditions: for Emax: read-out: 5-HT2C Function IP-formation % maximal effect
T6 sequence (P28335 33-458): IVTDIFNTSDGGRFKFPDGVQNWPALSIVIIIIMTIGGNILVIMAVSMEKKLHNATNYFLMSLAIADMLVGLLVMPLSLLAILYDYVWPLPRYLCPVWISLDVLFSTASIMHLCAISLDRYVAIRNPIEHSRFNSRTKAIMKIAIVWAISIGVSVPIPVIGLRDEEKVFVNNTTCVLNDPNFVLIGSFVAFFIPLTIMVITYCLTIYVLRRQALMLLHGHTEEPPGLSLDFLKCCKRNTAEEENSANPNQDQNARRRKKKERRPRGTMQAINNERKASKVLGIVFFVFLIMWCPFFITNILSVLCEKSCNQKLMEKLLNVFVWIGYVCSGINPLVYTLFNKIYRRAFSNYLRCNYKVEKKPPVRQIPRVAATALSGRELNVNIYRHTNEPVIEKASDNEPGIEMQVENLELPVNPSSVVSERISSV

human 5-HT2C receptor [21] = target: T6, human 5-HT2C receptor; test: biochemical; format: binding
[22] = normalized to the maximal effect of serotonin

| Compound | Rate of responding at dose of maximum DAR [1] [resp/s] | [3H]NE release % METH maximal effect (hNET [2]) | IC50 (hNET [3]) [µM] | EC50 (human 5-HT2A receptor [4]) [µM] | Emax (human 5-HT2A receptor [4]) [%] | Ki (hNET [5]) [µM] | Duration of depressant effects (Male Swiss–Webster mice) [min] | [3H]Dopamine release % METH maximal effect (hDAT [6]) | IC50 (hDAT [7]) [µM] | Rate of responding at dose of maximum DAR [8] [resp/s] | Ki (hSERT [9]) [µM] | Ki (hDAT [10]) [µM] | EC50 (human 5-HT2A receptor [11]) [µM] | Emax (human 5-HT2A receptor [11]) [%] | Rate of responding at dose of maximum DAR [12] [resp/s] | [3H]Serotonin release % PCA maximal effect (hSERT [16]) | Ki (human 5-HT2A receptor [17]) [µM] | Emax (human 5-HT1A receptor [18]) [%] | Ki (human 5-HT1A receptor [19]) [µM] | EC50 (human 5-HT1A receptor [18]) [µM] | also measured |
| --- | --- | --- | --- | --- | --- | --- | --- | --- | --- | --- | --- | --- | --- | --- | --- | --- | --- | --- | --- | --- | --- |
| CCc1cc(OC)c(CCN)cc1OC [2C-E, 2,5-dimethoxy-4-ethylphenethylamine] | 0.053±0.036 | ND Minimal | > 9.8 | 0.084 ± 0.016 | 125 ± 13 | > 7.6 | 50 to 70 | ND Minimal | > 10 | 0.413±0.061 | > 10 | > 10 | 0.0071 ± 0.0033 | 65 ± 11 | 0.228±0.024 | ND Minimal | 0.0045 ± 0.00071 | < 20 |  |  | Maximum %DAR (drug-appropriate responding) [1]: 100±0 %; Adverse effect observed (Male Sprague-Dawley rats; 10 mg/kg, MDMA-trained rats): Loss of muscle tone; Effect on responding (Male Sprague-Dawley rats; 25 mg/kg): completely suppressed responding; Duration of stimulant effects (Male Swiss–Webster mice): 70 to 100 min; Onset of depressant effects (within, after injection) (Male Swiss–Webster mice): ≤ 10 min; Onset of stimulant effects (within, after injection) (Male Swiss–Webster mice): ≤ 50 min; Maximum %DAR (drug-appropriate responding) [8]: 97±3 %; Rate of responding at dose of maximum DAR [13]: 0.466±0.166 resp/s; IC50 (hSERT [14]): > 7.5 µM; Rate of responding at dose of maximum DAR [15]: 0.576±0.087 resp/s; Maximum %DAR (drug-appropriate responding) ([15]; i.p., at dose of maximum DAR): 97±2 % |
| CN(C)CCc1c[nH]c2ccccc12 [DMT, N,N,-dimethyltryptamine, reference compound] |  |  |  | 0.269 ± 0.061 | 39 ± 4.6 |  |  |  |  |  |  |  | 0.26 ± 0.12 | 105 ± 3 |  |  | 0.201 ± 0.048 | 100 ± 5.2 |  |  |  |
| CCSc1cc(OC)c(CCN)cc1OC [2C-T-2, 2,5-dimethoxy-4-ethylthiophenethylamine] | 0.448±0.130 | ND Minimal | > 7.2 | 0.0079 ± 0.002 | 87.4 ± 6.5 | > 10 | 30 to 50 | ND Minimal | > 10 | 0.208±0.117 | > 9.4 | > 10 | 0.0023 ± 0.00069 | 107 ± 6.3 | 0.748±0.109 | ND Minimal | 0.0125 ± 0.0044 | 76 ± 10 | 1.74 ± 0.66 | 3 ± 1.3 | Decreased muscle tone (rats affected/tested) (Male Sprague-Dawley rats; 5 mg/kg, LSD-trained rats): 3/6; Adverse effects observed (Male Sprague-Dawley rats; 10 mg/kg): hind limb paralysis, salivation and loss of muscle tone; Rats that failed to complete the first fixed ratio (Male Sprague-Dawley rats; highest dose tested, in each of DMT-, LSD-, MDMA- and METH-trained groups): 5/6; Rate of responding at dose of maximum DAR [13]: 0.170±0.106 resp/s; IC50 (hSERT [14]): > 8.6 µM |
| CNC(C)Cc1ccc2c(c1)OCO2 (stereo not drawn) [MDMA, 3,4-methylenedioxymethamphetamine, reference compound] |  |  |  | 5500 ± 2300 | 40.2 ± 7.1 |  |  |  |  |  |  |  |  |  |  |  | 20.9 ± 4.6 | 64.3 ± 9.4 | 11.9 ± 1.2 | 36 ± 16 | Emax (human 5-HT2C receptor [20]): 92.2 ± 8% |
| CCN(CC)C(=O)[C@@H]1C=C2c3cccc4[nH]cc(c34)C[C@H]2N(C)C1 [LSD, lysergic acid diethylamide, reference compound] |  |  |  |  |  |  |  |  |  |  |  |  |  |  |  |  |  |  |  |  | IC50 (hNET [3]; read-out: [3H]NE uptake IC50): > 10 µM; 5-HT2A Function IP-1 formation % maximal effect (human 5-HT2A receptor [4]; [22]): 80.3 ± 4.9%; Ki (hNET [5]; read-out: hNET [125I]RTI-55 binding Ki): 5.6 ± 0.26 µM; IC50 (hDAT [7]; read-out: [3H]Dopamine uptake IC50, HEK-hDAT cells, cells printed in μM): > 10 µM; Ki (hSERT [9]; read-out: hSERT [125I]RTI-55 binding Ki, HEK-hSERT cells, cells printed in μM): > 10 µM; Ki (hDAT [10]; read-out: hDAT [125I]RTI-55 binding Ki, HEK-hDAT cells, cells printed in μM): > 10 µM; 5-HT2A Function [3H]AA release % maximal effect (human 5-HT2A receptor [11]; [22]): 87.8 ± 3.4%; IC50 (hSERT [14]; read-out: [3H]Serotonin uptake IC50, HEK-hSERT cells, cells printed in μM): > 10 µM |
| COC(=O)[C@H]1[C@@H](OC(=O)c2ccccc2)C[C@@H]2CC[C@H]1N2C [Cocaine, reference compound] |  |  |  |  |  |  |  | ND Minimal |  |  |  |  |  |  |  | ND Minimal |  |  |  |  |  |
| COc1cc(CC(C)N)c(OC)cc1C (stereo not drawn) [DOM, 2,5-dimethoxy-4-methylamphetamine, reference compound] |  |  |  | 0.0312 ± 0.0096 | 106 ± 11 |  |  |  |  |  |  |  |  |  |  |  | 0.0081 ± 0.0022 | 53.8 ± 9.7 | 11.9 ± 5.6 | 13.9 ± 1.5 |  |
| NCCc1c[nH]c2ccc(O)cc12 [Serotonin, reference compound] |  |  |  |  |  |  |  |  |  |  |  |  |  |  |  |  |  |  |  |  | Average maximal stimulation of IP-1 formation (human 5-HT2A receptor [4]; HEK-5-HT2A cells): 565 ± 46 nM IP1 |
| COc1cc(CCN)c(OC)cc1I [2C-I, 2,5-dimethoxy-4-iodophenethylamine] | 0.453±0.169 | ND Minimal | > 8.2 | 0.0079 ± 0.0022 | 82.4 ± 6.4 | > 10 | 30 to 60 | ND Minimal | > 9.6 | 0.233±0.075 | 0.95 ± 0.44 | > 10 |  | 32.5 ± 1.5 | 0.447±0.058 | ND Minimal | 0.0093 ± 0.0032 | 102 ± 4.7 | 0.97 ± 0.43 | 4.9 ± 2 | Maximum %DAR (drug-appropriate responding) [1]: 65% and 65±21 ^1%; Dose(s) that decreased response rate ([1]; rat, in vivo): 2.5 to 10 mg/kg; Ki (human 5-HT2C receptor [21]): 0.0102 ± 0.0017 µM; Doses producing depression of locomotor activity (Male Swiss–Webster mice): 3 to 30 mg/kg; Onset of depressant effects (within, after injection) (Male Swiss–Webster mice): ≤ 10 min; Maximum %DAR (drug-appropriate responding) [8]: 80±20 %; Maximum %DAR (drug-appropriate responding) ([12]; i.p., at dose of maximum DAR): 38% and 38±17 ^1%; Rate of responding at dose of maximum DAR [13]: 0.480±0.092 resp/s; IC50 (hSERT [14]): 5.6 ± 2.1 µM; EC50 (human 5-HT2C receptor [20]): 0.0028 ± 0.001 µM; Emax (human 5-HT2C receptor [20]): 79 ± 16% |

Source: paper PMC3945162 (Psychopharmacology, 2013)
